Laboratory results as given in US20250163026A1, “Deuterium-Enriched Nirmatrelvir as SARS-CoV-2 Mpro Inhibitor for the Treatment of COVID-19” (priority 2023, published 2025).

Test system: human coronavirus M^Pro
Test: Biochemical determination for human coronavirus M^pro assays
Details: at 30 μM, control compound, 1% DMSO
Protocol: The respective human coronavirus M^Pro in assay buffer (20 mM Tris-HCl, pH 7.3, 100 mM NaCl, 1 mM EDTA, 5 mM TCEP) and 0.1% BSA is added to assay-ready plates containing test compound (compound the present invention, Formula I). The enzymatic reaction is then immediately initiated with the addition of 5 μL substrate in assay buffer. Initial rates are measured by following the fluorescence of the cleaved substrate using a Spectramax (Molecular Devices) fluorescence plate reader in the kinetic format.
Test compounds (compounds of the present invention, compounds of Formula I) are tested at final concentrations up to […] in 1% DMSO and compared to the broad-spectrum antiviral compound GC376 [Y. Kim, S. Lovell, et al, Broad-spectrum antivirals against 3C or 3C-like proteases of picornaviruses, noroviruses, and coronaviruses. J. Virol. […] The reaction is allowed to progress for 60 minutes at 23° C. after which the plate is read on a Molecular Devices Spectramax M2e reader at an Ex/Em of 340 nm/490 nm.
Percent inhibition values are calculated based on control wells containing DMSO only (0% inhibition) and wells containing a control compound (100% inhibition). […] Percent activity values are calculated based on control wells containing no compound (100% activity) and wells containing the broad-spectrum antiviral compound GC376 (0% activity). […]

Q: Which inhibition does the source give for `CC(C)C[C@H](NC(=O)OCc1ccccc1)C(=O)N[C@@H](C[C@@H]1CCNC1=O)C(O)S(=O)(=O)[O-].[Na+]` (stereo partly shown) [GC376] here?
A: The inhibition was 100%.
